This note sets out measurements from ChEMBL document CHEMBL4406913, “INCB050465 (Parsaclisib), a Novel Next-Generation Inhibitor of Phosphoinositide 3-Kinase Delta (PI3Kδ)” (ACS Med Chem Lett, 2019).

Data set [1] addresses T1, Phosphatidylinositol 4,5-bisphosphate 3-kinase catalytic subunit delta isoform (Homo sapiens, UniProt O00329).
T1 sequence (O00329 whole entry): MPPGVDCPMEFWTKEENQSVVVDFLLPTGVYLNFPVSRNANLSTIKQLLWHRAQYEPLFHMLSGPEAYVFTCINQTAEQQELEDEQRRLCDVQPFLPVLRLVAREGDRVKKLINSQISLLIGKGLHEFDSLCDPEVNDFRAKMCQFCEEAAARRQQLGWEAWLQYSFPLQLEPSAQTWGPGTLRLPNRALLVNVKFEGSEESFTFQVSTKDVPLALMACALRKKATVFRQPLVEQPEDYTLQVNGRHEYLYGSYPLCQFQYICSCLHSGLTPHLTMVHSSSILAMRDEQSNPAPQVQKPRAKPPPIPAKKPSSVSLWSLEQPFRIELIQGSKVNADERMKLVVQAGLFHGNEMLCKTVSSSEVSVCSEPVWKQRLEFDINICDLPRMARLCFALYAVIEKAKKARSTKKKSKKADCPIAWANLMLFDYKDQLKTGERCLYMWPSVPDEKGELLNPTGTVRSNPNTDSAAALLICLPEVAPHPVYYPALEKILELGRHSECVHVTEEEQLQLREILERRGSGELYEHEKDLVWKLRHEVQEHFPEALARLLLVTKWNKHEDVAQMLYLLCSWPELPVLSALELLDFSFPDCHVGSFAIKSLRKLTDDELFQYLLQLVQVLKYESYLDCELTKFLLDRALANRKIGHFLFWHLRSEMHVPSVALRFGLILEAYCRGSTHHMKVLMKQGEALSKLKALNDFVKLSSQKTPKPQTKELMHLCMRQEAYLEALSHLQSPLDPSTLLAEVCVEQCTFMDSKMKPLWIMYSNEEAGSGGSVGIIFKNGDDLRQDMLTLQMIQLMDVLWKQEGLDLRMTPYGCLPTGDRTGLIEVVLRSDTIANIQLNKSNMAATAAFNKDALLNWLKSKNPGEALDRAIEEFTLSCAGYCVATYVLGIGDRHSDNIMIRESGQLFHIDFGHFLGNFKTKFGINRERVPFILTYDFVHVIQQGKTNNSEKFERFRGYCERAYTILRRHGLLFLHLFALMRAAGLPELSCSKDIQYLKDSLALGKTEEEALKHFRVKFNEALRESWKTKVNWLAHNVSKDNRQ
Briefly: Inhibition of PI3Kdelta in human Ramos cells assessed as reduction in AKT phosphorylation incubated for 2 hrs by Alexa flour 488 based FACS analysis. Format: cell-based. In general terms: Flow cytometry measures light scatter and fluorescence of single cells or particles in a stream.

Data set [2] concerns the target Phosphatidylinositol 4,5-bisphosphate 3-kinase catalytic subunit alpha isoform (Homo sapiens, UniProt P42336). Briefly: Inhibition of PI3Kalpha (unknown origin) using D-myophosphatidylinositol 4,5-bisphosphate as substrate incubated for 120 mins by [gamma-33P]-ATP based scintillation counting method.
For data set [3], the target named is Phosphatidylinositol 4,5-bisphosphate 3-kinase catalytic subunit beta isoform (Homo sapiens, UniProt P42338). Briefly: Inhibition of PI3Kbeta (unknown origin) using D-myophosphatidylinositol 4,5-bisphosphate as substrate incubated for 120 mins by [gamma-33P]-ATP based scintillation counting method.
Chain of Phosphatidylinositol 4,5-bisphosphate 3-kinase catalytic subunit beta isoform (P42338 whole entry, canonical isoform): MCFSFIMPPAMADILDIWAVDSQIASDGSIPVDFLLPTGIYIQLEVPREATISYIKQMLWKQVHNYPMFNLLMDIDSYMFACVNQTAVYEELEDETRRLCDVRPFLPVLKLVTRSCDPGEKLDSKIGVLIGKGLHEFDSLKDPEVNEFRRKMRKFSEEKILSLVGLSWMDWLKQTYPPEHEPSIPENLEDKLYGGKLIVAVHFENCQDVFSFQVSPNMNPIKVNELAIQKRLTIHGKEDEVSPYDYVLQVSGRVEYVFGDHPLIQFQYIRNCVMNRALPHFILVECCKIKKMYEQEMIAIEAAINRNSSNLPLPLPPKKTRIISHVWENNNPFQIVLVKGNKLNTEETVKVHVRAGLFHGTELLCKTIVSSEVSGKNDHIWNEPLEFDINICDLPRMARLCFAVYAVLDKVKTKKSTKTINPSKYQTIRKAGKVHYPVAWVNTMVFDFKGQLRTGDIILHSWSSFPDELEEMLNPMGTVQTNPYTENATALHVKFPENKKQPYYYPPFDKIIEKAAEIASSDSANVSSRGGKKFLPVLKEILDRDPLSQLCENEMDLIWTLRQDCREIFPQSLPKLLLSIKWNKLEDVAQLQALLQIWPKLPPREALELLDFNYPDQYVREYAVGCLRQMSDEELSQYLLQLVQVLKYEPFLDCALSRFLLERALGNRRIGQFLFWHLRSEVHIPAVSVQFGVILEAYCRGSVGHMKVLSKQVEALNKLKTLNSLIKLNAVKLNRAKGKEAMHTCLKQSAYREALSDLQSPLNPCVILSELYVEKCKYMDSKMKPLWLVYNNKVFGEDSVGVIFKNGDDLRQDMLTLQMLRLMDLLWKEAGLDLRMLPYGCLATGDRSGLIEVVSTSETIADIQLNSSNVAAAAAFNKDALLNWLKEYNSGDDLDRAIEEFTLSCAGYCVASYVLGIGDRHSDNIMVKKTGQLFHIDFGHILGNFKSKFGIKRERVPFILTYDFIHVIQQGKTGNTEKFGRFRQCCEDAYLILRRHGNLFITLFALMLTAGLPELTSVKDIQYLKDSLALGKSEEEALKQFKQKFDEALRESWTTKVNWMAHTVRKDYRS
The nature of data set [4]: Volume of distribution at steady state in Beagle dog at 2 mg/kg, iv measured for 24 hrs by LC-MS/MS analysis. Format: ADME, organism-based, Canis lupus familiaris. Conditions: in vivo, read-out: Vdss.
The next data set deals with Pfeiffer. Description: Antitumor activity against human Pfeiffer cells xenografted in SCID mouse assessed as reduction in tumor growth at 1 mg/kg, po bid for 14 days measured 2-3 times weekly by digital caliper method. The class given is functional, organism-based. (Xenograft models place foreign cells or tissue in a host animal.)
The next data set deals with T2, Cytochrome P450 1A2 (Homo sapiens, UniProt P05177).
T2 sequence (P05177 whole entry): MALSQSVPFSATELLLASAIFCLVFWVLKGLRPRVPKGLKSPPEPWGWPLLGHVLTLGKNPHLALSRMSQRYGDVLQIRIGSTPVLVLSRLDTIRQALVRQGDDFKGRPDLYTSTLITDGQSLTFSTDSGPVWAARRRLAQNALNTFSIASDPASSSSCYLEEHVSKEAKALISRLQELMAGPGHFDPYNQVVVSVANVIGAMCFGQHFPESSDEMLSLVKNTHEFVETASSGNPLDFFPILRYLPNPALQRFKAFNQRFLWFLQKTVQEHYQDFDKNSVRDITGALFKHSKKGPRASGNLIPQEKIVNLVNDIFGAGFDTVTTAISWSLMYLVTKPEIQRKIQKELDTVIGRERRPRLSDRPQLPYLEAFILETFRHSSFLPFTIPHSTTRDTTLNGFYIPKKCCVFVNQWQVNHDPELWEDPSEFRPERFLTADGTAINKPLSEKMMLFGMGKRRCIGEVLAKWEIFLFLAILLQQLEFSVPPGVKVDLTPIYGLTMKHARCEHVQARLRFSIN
Description: Inhibition of CYP1A2 in human liver microsomes at 0.1 to 25 uM using 7-ethoxyresorufin as substrate by LC/MS analysis. Format: ADME. (Liver microsomes are a subcellular fraction often used to study metabolism.)

In the next data set the target is Cytochrome P450 2C9 (Homo sapiens, UniProt P11712). Briefly: Inhibition of CYP2C9 in human liver microsomes at 0.1 to 25 uM using diclofenac as substrate by LC/MS analysis. Format: ADME.
Chain of Cytochrome P450 2C9 (P11712 whole entry): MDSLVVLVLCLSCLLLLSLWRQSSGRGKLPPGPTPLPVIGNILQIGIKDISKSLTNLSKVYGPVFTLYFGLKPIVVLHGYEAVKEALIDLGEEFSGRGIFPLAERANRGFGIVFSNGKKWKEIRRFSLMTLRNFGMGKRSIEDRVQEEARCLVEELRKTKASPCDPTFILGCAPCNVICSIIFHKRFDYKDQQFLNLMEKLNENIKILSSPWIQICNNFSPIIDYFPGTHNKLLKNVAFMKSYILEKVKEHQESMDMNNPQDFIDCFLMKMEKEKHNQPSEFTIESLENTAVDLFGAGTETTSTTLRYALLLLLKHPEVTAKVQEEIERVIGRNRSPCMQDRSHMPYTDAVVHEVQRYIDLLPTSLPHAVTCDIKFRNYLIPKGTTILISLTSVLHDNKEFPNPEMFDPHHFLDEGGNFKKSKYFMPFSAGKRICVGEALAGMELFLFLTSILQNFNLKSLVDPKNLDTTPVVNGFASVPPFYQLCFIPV
The target in another data set is Cytochrome P450 2D6 (Homo sapiens, UniProt P10635). Briefly: Inhibition of CYP2D6 in human liver microsomes using bufuralol as substrate by LC/MS analysis. The class given is ADME.
Chain of Cytochrome P450 2D6 (P10635 whole entry): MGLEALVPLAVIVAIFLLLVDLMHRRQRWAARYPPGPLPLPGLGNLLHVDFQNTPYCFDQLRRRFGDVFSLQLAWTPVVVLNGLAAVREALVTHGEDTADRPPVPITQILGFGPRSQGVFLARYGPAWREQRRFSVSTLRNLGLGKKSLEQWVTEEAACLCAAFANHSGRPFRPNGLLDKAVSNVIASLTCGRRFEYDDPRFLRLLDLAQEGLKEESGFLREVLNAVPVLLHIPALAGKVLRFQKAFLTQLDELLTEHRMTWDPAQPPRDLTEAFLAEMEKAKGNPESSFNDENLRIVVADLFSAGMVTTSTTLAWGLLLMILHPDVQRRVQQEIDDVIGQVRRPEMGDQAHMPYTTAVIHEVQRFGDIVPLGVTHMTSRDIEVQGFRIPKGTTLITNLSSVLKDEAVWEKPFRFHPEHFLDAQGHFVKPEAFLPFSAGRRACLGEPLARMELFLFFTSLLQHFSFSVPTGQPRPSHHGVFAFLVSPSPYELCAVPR
The target of a further data set is Cytochrome P450 3A4 (Homo sapiens, UniProt P08684). Briefly: Inhibition of CYP3A4 in human liver microsomes at 0.1 to 25 uM using testosterone as substrate by LC/MS analysis. The class given is ADME.
Chain of Cytochrome P450 3A4 (P08684 whole entry): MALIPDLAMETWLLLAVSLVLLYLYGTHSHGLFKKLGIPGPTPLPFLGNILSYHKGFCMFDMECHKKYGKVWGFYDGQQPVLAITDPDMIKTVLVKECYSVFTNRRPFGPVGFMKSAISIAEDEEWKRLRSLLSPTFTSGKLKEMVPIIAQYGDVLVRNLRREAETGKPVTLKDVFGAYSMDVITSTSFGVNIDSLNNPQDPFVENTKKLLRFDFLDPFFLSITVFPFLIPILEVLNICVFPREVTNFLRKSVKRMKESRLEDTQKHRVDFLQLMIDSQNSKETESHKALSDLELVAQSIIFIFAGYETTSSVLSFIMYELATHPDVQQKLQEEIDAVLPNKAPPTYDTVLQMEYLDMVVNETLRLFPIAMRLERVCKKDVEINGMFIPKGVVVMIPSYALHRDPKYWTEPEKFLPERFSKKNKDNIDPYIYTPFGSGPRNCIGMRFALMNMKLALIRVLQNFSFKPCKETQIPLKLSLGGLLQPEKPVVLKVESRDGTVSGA

The source made the active and inactive calls. The calls are words filed in the database; no cut-off is given here. A value given as a limit tells only on which side of the number the result lay.

Chain of Phosphatidylinositol 4,5-bisphosphate 3-kinase catalytic subunit alpha isoform (P42336 whole entry, canonical isoform): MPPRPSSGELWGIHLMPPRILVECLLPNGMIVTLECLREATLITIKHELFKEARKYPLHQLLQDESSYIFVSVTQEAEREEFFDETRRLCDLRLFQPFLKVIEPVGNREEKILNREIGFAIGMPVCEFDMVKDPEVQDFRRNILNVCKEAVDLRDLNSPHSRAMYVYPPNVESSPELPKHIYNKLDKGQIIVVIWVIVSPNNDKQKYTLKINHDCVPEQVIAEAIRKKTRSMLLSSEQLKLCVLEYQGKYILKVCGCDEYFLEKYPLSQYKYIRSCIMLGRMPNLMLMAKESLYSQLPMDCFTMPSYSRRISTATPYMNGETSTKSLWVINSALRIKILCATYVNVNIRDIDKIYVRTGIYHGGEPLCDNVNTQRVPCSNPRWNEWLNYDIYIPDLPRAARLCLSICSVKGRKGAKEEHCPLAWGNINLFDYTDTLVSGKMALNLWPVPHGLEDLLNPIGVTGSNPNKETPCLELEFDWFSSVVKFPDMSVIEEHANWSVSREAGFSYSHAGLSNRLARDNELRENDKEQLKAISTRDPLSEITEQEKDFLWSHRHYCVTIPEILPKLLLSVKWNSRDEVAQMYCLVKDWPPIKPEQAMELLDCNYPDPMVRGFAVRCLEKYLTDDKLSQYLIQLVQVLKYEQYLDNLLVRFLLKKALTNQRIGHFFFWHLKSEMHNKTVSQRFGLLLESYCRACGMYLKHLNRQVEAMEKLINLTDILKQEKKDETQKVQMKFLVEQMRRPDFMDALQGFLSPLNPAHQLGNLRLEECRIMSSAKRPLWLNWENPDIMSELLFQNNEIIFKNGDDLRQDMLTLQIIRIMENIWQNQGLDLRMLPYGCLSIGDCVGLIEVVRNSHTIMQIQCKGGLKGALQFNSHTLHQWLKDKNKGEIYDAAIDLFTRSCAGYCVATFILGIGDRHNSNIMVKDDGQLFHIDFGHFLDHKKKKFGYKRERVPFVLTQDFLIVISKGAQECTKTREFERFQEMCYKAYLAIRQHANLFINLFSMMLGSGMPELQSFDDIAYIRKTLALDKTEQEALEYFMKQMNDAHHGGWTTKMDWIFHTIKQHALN

Turning to `CCOc1c([C@H](C)n2nc(C)c3c(N)ncnc32)cc(Cl)c(F)c1[C@@H]1CNC(=O)C1` [PARSACLISIB], the IC50 is 0.0011 µM in data set [1], over 20 µM in data set [2] and over 20 µM in [3]. For the same molecule, the Vd in data set [4] worked out at 0.32 L/kg. Moreover, the inhibition result in the data set with Pfeiffer was “Active”. For the same molecule, the “inhibition (INH)” value at Cytochrome P450 1A2, at Cytochrome P450 2C9, against Cytochrome P450 2D6 and against Cytochrome P450 3A4 was “Not Active” each time.

As usually defined, the IC50 is the concentration that gives 50% inhibition.
